For assay [1], the system named is chicken chorioallantoic membrane (CAM). The assay can be described thus: Windowed CAM assay, Elvax pellet, vascular density index. The class given is in vivo. As to conditions: Elvax pellet with 3 mg adenosine, in place for seven days, 12-15 eggs per group, FIG. 5. As for the experimental part:
Fertile White Leghorn chicken eggs were obtained from Truslow Farms (Chesterfield, Mo.). Eggs were incubated at 37° for 7 days, then a 1.5 cm window was cut into each egg over the CAM. Pellets were applied to the CAMs and the windows closed with cellophane tape. Eggs were incubated until day 14 when the CAMs were fixed. […] The pellets were placed on the CAM where there were a few vessels present and were left in place for seven days. The CAMs then were fixed in 10% buffered formalin and vessels were counted under 20× magnification using a Nikon stereomicroscope. The quantitation of vascular number is presented as vascular density index VDI that was an adaptation of a method described by Harris-Hooker (Harris-Hooker et al., Neovascular Responses Induced by Cultured Aortic Endothelial Cells, J. Cell. Phys., 114, 302-310, 1983). A plastic cover slip inscribed with 4, 5, 6, and 8 mm diameter concentric circles was centered over the adenosine pellet on the formalin-fixed CAM. The vascular density was judged by counting the numbers of the vessels which intersected the circles. This technique allowed counting of vessels down to 10-12 u in diameter. The positioning of the pellets on the CAM was randomized. […] Adenosine was delivered by other means as well.

For assay [2] the test system is unchanged. The assay can be described thus: CAM assay, drug applied daily on filter paper disc, vessels counted. Type of assay: in vivo. The settings on record: for angiogenic response in the CAM (vessel density at edge of disk): 100 μl daily for 7 days on filter paper disk. As to the method:
Adenosine receptor subtype selective agonists stimulate angiogenesis to varying degrees in the CAM. […] In these studies, sterile filter paper disks were used to apply drug or vehicle to the CAM of eggs windowed after 7 days of incubation. The circular disk was 7 mm diameter. The agonist and antagonist drugs were delivered daily for 7 days in a volume of 100 μl placed onto the disks. On day 14 the CAMs were formalin fixed. The vessel density was determined by counting the vessels that intersected with the edge of the disks. Each bar represents data from between 13 and 19 eggs, with the exception of the bar for xanthine amine congener (XAC) which represents only four eggs. […] It is possible that some adenosine receptors may stimulate angiogenesis, while others, particularly the A2A receptor, may inhibit it. […] The 100 nM doses used should have allowed some preservation of subtype selectivity for the ligands.
Fertile White Leghorn chicken eggs are obtained from Truslow Labs (Maryland) and incubated until day 7 post-fertilization at 37° C. The eggs were automatically rotated by the incubator. On day 7 the eggs were candled to check for viability. The eggshell surface was cleaned with betadine and 70% isopropanol. A window 1.5×1.5 cm was cut into each egg over the CAM. The window was covered with clear cellophane tape and the eggs incubated at 37° C. overnight. The following day a sterile filter paper disc was applied to the CAM for the daily delivery of drugs or vehicle in a volume of 100 μl. CAMs were fixed on day 14 and vessels counted using the aforementioned method of Harris-Hooker et al.
CPA at 100 nM with or without 1 μM WRC-0571 was applied to filter paper discs on developing CAMs as described above.
Here, PD enhances the effects of endogenous adenosine on the chicken A1 receptor in the CAM. PD at a concentration of 100 μM, or vehicle, was delivered to the CAM on a filter paper disc using a protocol identical to that used for adenosine agonists. […] A small effect such as this in the absence of applied ligand or ischemia/hypoxia (which would increase the endogenous adenosine levels) is expected. Because it is a rapidly growing tissue, the CAM probably has higher levels of adenosine than more quiescent tissues, resulting in a measurable effect.

For assay [3] the test system is unchanged. The assay is described as above. The class given is in vivo. As to conditions: 20 nM CPA alone, FIG. 10.
Assay [4] concerns the target T1, human A3 over the A1 receptor (Homo sapiens, UniProt P0DMS8).
T1 sequence (P0DMS8 1-318): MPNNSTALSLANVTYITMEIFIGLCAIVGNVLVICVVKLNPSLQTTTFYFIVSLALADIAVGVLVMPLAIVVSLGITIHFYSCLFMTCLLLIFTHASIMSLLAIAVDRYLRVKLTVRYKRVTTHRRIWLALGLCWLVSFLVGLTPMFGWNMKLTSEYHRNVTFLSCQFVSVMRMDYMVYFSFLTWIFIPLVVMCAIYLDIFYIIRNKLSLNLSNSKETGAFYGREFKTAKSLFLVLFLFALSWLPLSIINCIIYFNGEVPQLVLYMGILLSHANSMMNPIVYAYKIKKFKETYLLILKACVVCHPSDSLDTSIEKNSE
As to conditions: cited from earlier work.

Another assay has as its system rat mesentery. The assay can be described thus: Rat mesentery angiogenesis, intraperitoneal Alzet osmotic pump infusion. Type of assay: in vivo. The settings on record: chronic infusion by Alzet pump into the peritoneal cavity, one week, FIG. 11. As to the method:
Drug application into rat mesentery using infusion pumps. Alzet osmotic pumps were filled with drug or vehicle to a volume of 200 μl . The abdominal cavities of anesthetized 150 g Sprague-Dawley rats were incised and pumps implanted into the intraperitoneal cavity. The pumps delivered the drug at 1.0 μl/hr. After one week mesenteric samples were taken between vascular arcades along the length of the small bowel. Specimens were fixed and stained using a BS:lectin stain.
The control mesentery is shown on the left, PD 81,723—treated on the right. The chronic infusion was an advantage because the model is not an ischemic one, so steady long term administration of the PD 81,723 may help to augment the effects of lower concentrations of endogenous adenosine.

Each structure is given as a SMILES string. Bounds are passed on as bounds.

The source of these data is patent US7732484B2, “Use of selective adenosine A1 receptor allosteric enhancers to manipulate angiogenesis” (University of Virginia Patent Foundation, priority 2000, dated 2010).

Regarding `Nc1ncnc2c1ncn2[C@@H]1O[C@H](CO)[C@@H](O)[C@H]1O` [Adenosine, adenosine], the “angiogenesis in the CAM model (vascular density index)” value in assay [1] is “stimulated angiogenesis”.
For `CCNC(=O)[C@H]1O[C@@H](n2cnc3c(N)nc(NCCc4ccc(CCC(=O)O)cc4)nc32)[C@H](O)[C@@H]1O` [CGS21680], the “angiogenic response in the CAM (vessel density at edge of disk)” value (shortened to “angiogenic response in the CAM”) in assay [2] (100 nM doses, FIG. 6) was “No angiogenic response”.
Regarding `OC[C@H]1O[C@@H](n2cnc3c(NC4CCCC4)ncnc32)[C@H](O)[C@@H]1O` [CPA, Cyclopentyladenosine], in assay [3], the “stimulation of angiogenesis in the CAM” value was “did not stimulate angiogenesis”. The “angiogenic response in the CAM” value in assay [2] (100 nM doses, FIG. 6) is given as “positive angiogenic response”.
Take `CCOC(=O)C1=C(C)NC(c2ccccc2)=C(C(=O)OCc2ccccc2)C1C#Cc1ccccc1` (centres unmarked) [MRS 1191]: the “selectivity for the human A3 over the A1 receptor” value in assay [4] is recorded as greater than 1300 fold.
On to `CCNC(=O)[C@H]1O[C@@H](n2cnc3c(N)ncnc32)[C@H](O)[C@@H]1O` [NECA], for which the “angiogenic response in the CAM” value in assay [2] (100 nM doses, FIG. 6) is recorded as “positive angiogenic response”.
Consider `Cc1sc(N)c(C(=O)c2cccc(C(F)(F)F)c2)c1C` [PD 81,723], for which the “stimulation of angiogenesis in rat mesentery” value with rat mesentery is on record as “Stimulation of angiogenesis”. Further, the “stimulation of angiogenesis in the CAM” value in assay [2] (100 μM on filter paper disc versus vehicle, FIG. 8) worked out at 10%.
As for `CC(C)N(C)c1nc2c(N[C@@H]3CC4CC3CC4O)ncnc2n1C` (some centres unmarked) [WRC-0571], the “block of the angiogenic effect of CPA in the CAM” value in assay [2] (1 μM WRC-0571 with 100 nM CPA, FIG. 7) is recorded as “completely blocked”. Also, the “block of the effects of endogenous adenosine on angiogenesis in the CAM” value in assay [2] (FIG. 8) was “blocked the effects of endogenous adenosine”. In assay [2] (FIG. 9), the “block of C17-stimulated angiogenesis in the CAM” value is reported as “blocked”. Besides, the “block of the effects of PD 81,723 in the CAM” value in assay [2] (with PD at 100 μM, FIG. 8) was “completely blocked”.
For `CCCn1c(=O)c2[nH]c(-c3ccc(OCC(=O)NCCN)cc3)nc2n(CCC)c1=O` [XAC, xanthine amine congener], the “inhibition of baseline angiogenesis in the CAM” value in assay [2] (100 nM doses, daily for 7 days on filter paper disk, four eggs, FIG. 6) was “did not inhibit baseline angiogenesis”.
On to `CNC(=O)[C@H]1O[C@@H](n2cnc3c(NCc4cccc(I)c4)ncnc32)[C@H](O)[C@@H]1O` [m-MECA, N^6-iodobenzyl-5′-N-methyl-carboxamidoadenosine], for which the “angiogenic response in the CAM” value in assay [2] (100 nM doses, FIG. 6) is reported as “positive angiogenic response”.
